Laboratory results published in ChEMBL document CHEMBL2069220, “Targeting peroxisome proliferator-activated receptors (PPARs): development of modulators” (J Med Chem, 2012).
Values belong to the compound of their own block, whether it stands above or below them.

Columns and labels:
Homo sapiens [1] = organism: Homo sapiens; assay: Selectivity ratio for PPRbeta/delta over PPRgamma
Homo sapiens [2] = organism: Homo sapiens; assay: Selectivity ratio for PPRalpha over PPRgamma
[3] = target: T1, Peroxisome proliferator-activated receptor alpha (Homo sapiens, UniProt Q07869); assay: Agonist activity at PPARalpha; type: functional
T1 sequence (Q07869 whole entry): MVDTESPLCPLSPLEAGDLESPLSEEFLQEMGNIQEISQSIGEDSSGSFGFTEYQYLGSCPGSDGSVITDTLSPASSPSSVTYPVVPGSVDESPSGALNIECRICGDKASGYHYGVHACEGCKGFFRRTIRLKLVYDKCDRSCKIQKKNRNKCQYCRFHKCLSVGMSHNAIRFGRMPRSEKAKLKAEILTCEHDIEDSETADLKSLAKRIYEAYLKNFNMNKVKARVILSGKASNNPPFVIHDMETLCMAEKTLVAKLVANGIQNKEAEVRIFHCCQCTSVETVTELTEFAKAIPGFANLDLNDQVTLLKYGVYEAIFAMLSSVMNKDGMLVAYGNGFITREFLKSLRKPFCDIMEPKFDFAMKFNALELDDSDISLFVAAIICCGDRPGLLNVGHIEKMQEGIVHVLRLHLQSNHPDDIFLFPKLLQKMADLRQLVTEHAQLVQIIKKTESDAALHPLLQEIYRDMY

Homo sapiens [4] = organism: Homo sapiens; assay: Selectivity ratio for human PPRgamma over human PPRbeta/delta
Mus musculus [5] = organism: Mus musculus; assay: Selectivity ratio for mouse PPRgamma to mouse PPRbeta/delta
Homo sapiens [6] = organism: Homo sapiens; assay: Selectivity ratio for human PPRalpha over human PPRbeta/delta
Mus musculus [7] = organism: Mus musculus; assay: Selectivity ratio for mouse PPRalpha over mouse PPRbeta/delta
[8] = target: T2, Peroxisome proliferator-activated receptor gamma (Homo sapiens, UniProt P37231); assay: Binding affinity to PPARgamma
T2 sequence (P37231 whole entry): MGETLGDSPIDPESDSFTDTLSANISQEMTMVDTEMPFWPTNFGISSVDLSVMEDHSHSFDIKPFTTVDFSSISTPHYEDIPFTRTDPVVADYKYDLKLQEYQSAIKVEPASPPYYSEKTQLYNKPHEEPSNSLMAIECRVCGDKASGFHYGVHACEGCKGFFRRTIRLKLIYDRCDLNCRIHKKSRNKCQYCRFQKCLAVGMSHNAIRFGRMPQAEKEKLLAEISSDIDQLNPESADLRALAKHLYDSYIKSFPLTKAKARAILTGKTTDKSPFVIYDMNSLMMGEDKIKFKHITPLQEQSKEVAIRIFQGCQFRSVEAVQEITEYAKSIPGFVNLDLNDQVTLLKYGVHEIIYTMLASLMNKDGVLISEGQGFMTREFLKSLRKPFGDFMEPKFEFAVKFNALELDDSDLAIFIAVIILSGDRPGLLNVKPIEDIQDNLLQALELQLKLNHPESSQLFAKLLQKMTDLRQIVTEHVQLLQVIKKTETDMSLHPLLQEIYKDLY

Selectivity ratio (Homo sapiens [1]): > 1000
Selectivity ratio (Homo sapiens [2]): > 1000
Compound: CN(CCOc1ccc(C[C@H](Nc2ccccc2C(=O)c2ccccc2)C(=O)O)cc1)c1ccccn1

EC50 [3]: 60 nM
Compound: CC(C)(Oc1ccc(CCOc2ccc(/C=C/C(=O)c3cc(Cl)ccc3O)cc2)cc1)C(=O)O

Selectivity ratio (Homo sapiens [4]): > 100
Selectivity ratio (Mus musculus [5]): > 100
Selectivity ratio (Homo sapiens [6]): > 100
Selectivity ratio (Mus musculus [7]): > 100
Compound: CCCc1c(OCCCOc2ccc(OCC(=O)O)cc2)ccc(C(C)=O)c1O

Kd [8]: 2000 nM
Compound: CCCCC/C=C/C=C1/C(=O)C=C[C@@H]1C/C=C\CCCC(=O)O

Kd [8]: 2000 nM
Compound: CCCCC/C=C\C=C\C(O)CCCCCCCC(=O)O (stereo not drawn)

Kd [8]: 2000 nM
Compound: CCCCCC(O)/C=C\C=C/CCCCCCCC(=O)O (stereo not drawn)

Selectivity ratio (Homo sapiens [1]): > 1000
Selectivity ratio (Homo sapiens [2]): > 1000
Compound: COC(=O)c1ccccc1N[C@@H](Cc1ccc(OCCc2nc(-c3ccccc3)oc2C)cc1)C(=O)O

Kd [8]: 2000 nM
Compound: CC/C=C\C/C=C\C/C=C\C/C=C\C/C=C\CCCC(=O)O [ICOSAPENT]
